Experimental data taken from patent US9796714B2, “Calcium channel agonists” (University of Pittsburgh—Of the Commonwealth System of …, priority 2013, dated 2017).

Tested on: LEMS model NMJs
Assay: Intracellular recordings at LEMS model mouse NMJs, 13x, DAP and combination (Example 4)
Settings: 50 μM 13x, […] DAP, or both
Procedure: To test this, intracellular microelectrode recordings were performed on ex vivo nerve-muscle preparations taken from LEMS passive-transfer model mice and measured the magnitude of acetylcholine released at the neuromuscular junction. The most sensitive method of quantifying the magnitude of acetylcholine released is to determine the quantal content. Quantal content is defined as the number of neurotransmitter-containing synaptic vesicles that are released from the nerve terminal during a single action potential stimulus. This value was determined by first measuring the area under the average action potential-evoked endplate potential (EPP) and then dividing this value by the area under the average single vesicle release event (miniature endplate potential; mEPP). This value could be compared between experimental groups to provide an accurate measurement of changes in the magnitude of acetylcholine released during a single action potential. Using this approach, the quantal content among five experimental conditions was compared: control NMJs, LEMS NMJs, LEMS NMJs exposed to 50 μM 13x, LEMS NMJs exposed to 1.5 μM DAP, and LEMS NMJs exposed to 50 μM 13x+1.5 μM DAP (FIG. 10). […]; EPP amplitude=10.18±0.62 mV) as compared with control serum treated mouse NMJs (QC=107.5±3.6; EPP amplitude=34.62±1.37 mV; Tarr et al., 2013). […] In fact, this 13x-mediated enhancement was very similar to what was observed after exposure of LEMS model NMJs to 1.5 μM DAP (QC=49.0±4.4; EPP amplitude=17.94±1.381 mV). […]; EPP amplitude=34.62±1.37 mV; Tarr et al., 2013). […] In summary, while either 13x or DAP alone caused about an 80% increase in transmitter release from LEMS model NMJs, the combination of 13x plus DAP caused about a 300% increase in transmitter release.

CCCn1cnc2c(NCc3ccc(C)s3)nc(N[C@H](CC)CO)nc21 [Compound 13x, (2R)-2-[(6-{[(5-Methylthiophen-2-yl)methyl]amino}-9-propyl-9H-purin-2-yl)amino]butan-1-ol]
10th EPP of 50 Hz train as % of the first EPP (short-term plasticity): ~123% | increase in transmitter release from LEMS model NMJs: ~80% | EPP amplitude (LEMS model NMJs): 13.75±1.244 mV | quantal content (QC, area of EPP divided by area of mEPP) (LEMS model NMJs, mean±s.e.m.): 48.4±2.7
